Experiments:
Type in all cases: cell-based
Settings in all cases: 72 h
[1] = system: SW579 cells; assay: CellTiter-Glo cell viability, SW579
Procedure: (§1) The cell viability of 50 cancer cell lines was studied after treatment with Compound 121. Inhibition concentration values at 50% (IC50) were determined using CellTiter-Glo luminescent cell viability assay after incubation with different compound concentrations. GI50 values were determined according to the examples described above. Each cell line was treated with Compound 121, a standard chemotherapy drug as a reference control, and culture medium as a vehicle control.
(§2) All cells were cultured in media supplemented with 10-15% FBS at 37° C. in the presence of 5% CO2 and at 95% humidity. The culture medium was purchased from GIBCO or Sigma, USA. Cisplatin was chosen as the reference control and purchased from Hospira Australia Pty Ltd. The cell lines studied are presented in Table 5.
(§3) Cells were harvested during a logarithmic growth period and cell number count was determined using Count-star. Cell concentrations were adjusted to 4.44×10^4 cells/mL with respective culture medium. 90 μL of cell suspensions were added to two 96-well plates (plates A and B) with a final cell density of 4×10^3 cells/well.
(§4) 10 μL of culture medium was added to each well of plate A for TO reading. The plate was allowed to equilibrate at room temperature for approximately 30 min. 50 μL of CellTiter-Glo was added to each well and the contents were mixed for 5 min on an orbital shaker to induce cell lysis. The plate was allowed to incubate at room temperature for 20 min to stabilize luminescent signal.
(§5) 10 μM Compound 121 in media was serially diluted 3.16-fold to achieve 9 dose levels. Similarly, 100 μM reference control in media was serially diluted 3.16-fold to prepare reference control solutions. 10 μL drug solution and 10 μL of reference control was dispensed into each well in plate B.
(§6) Test plate B was incubated for 72 h in a humidified incubator at 37° C. in the presence of 5% CO2 and then subjected to CTG assay. The plate was allowed to equilibrate at room temperature for about 30 min. 50 μL of CellTiter-Glo was added to each well and the contents were mixed for 5 min on an orbital shaker to induce cell lysis. The plate was allowed to incubate at room temperature for 20 min to stabilize luminescent signal.
(§7) IC50 and GI50 values for each of the 50 cell lines are presented in Table 6 and were calculated based on the dose-response curves depicted in FIGS. 1-50. The dose-response curves were fitted using nonlinear regression model with a sigmoidal dose response. The formula for calculating survival rate was calculated by the formula:
(§8) Survival rate (%)=(LumTest article−LumMedium control)/(LumNone treated−LumMedium control)×100.

[2] = system: HT-1080 cells; assay: CellTiter-Glo cell viability, HT-1080
Procedure: as §1, §2, §3, §4, §5, §6, §7, §8

[3] = system: HCT-15 cells; assay: CellTiter-Glo cell viability, HCT-15
Procedure: as §1, §2, §3, §4, §5, §6, §7, §8

[4] = system: MDA-MB-453 cells; assay: CellTiter-Glo cell viability, MDA-MB-453
Procedure: as §1, §2, §3, §4, §5, §6, §7, §8

[5] = system: RPMI 8226 cells; assay: CellTiter-Glo cell viability, RPMI 8226
Procedure: as §1, §2, §3, §4, §5, §6, §7, §8

[6] = system: NCI-H226 cells; assay: CellTiter-Glo cell viability, NCI-H226
Procedure: as §1, §2, §3, §4, §5, §6, §7, §8

[7] = system: HCT-116 cells; assay: CellTiter-Glo cell viability, HCT-116
Procedure: as §1, §2, §3, §4, §5, §6, §7, §8

[8] = system: A-172 cells; assay: CellTiter-Glo cell viability, A-172
Procedure: as §1, §2, §3, §4, §5, §6, §7, §8

[9] = system: MX-1 cells; assay: CellTiter-Glo cell viability, MX-1
Procedure: as §1, §2, §3, §4, §5, §6, §7, §8

[10] = system: HT-1376 cells; assay: CellTiter-Glo cell viability, HT-1376
Procedure: as §1, §2, §3, §4, §5, §6, §7, §8

[11] = system: HeLa cells; assay: CellTiter-Glo cell viability, HeLa
Procedure: as §1, §2, §3, §4, §5, §6, §7, §8

[12] = system: K-562 cells; assay: CellTiter-Glo cell viability, K-562
Procedure: as §1, §2, §3, §4, §5, §6, §7, §8

[13] = system: NCI-H1975 cells; assay: CellTiter-Glo cell viability, NCI-H1975
Procedure: as §1, §2, §3, §4, §5, §6, §7, §8

[14] = system: FaDu cells; assay: CellTiter-Glo cell viability, FaDu
Procedure: as §1, §2, §3, §4, §5, §6, §7, §8

[15] = system: HL-60 cells; assay: CellTiter-Glo cell viability, HL-60
Procedure: as §1, §2, §3, §4, §5, §6, §7, §8

[16] = system: MDA-MB-231 cells; assay: CellTiter-Glo cell viability, MDA-MB-231
Procedure: as §1, §2, §3, §4, §5, §6, §7, §8

[17] = system: PC-3 cells; assay: CellTiter-Glo cell viability, PC-3
Procedure: as §1, §2, §3, §4, §5, §6, §7, §8

[18] = system: AN3 CA cells; assay: CellTiter-Glo cell viability, AN3 CA
Procedure: as §1, §2, §3, §4, §5, §6, §7, §8

[19] = system: A2058 cells; assay: CellTiter-Glo cell viability, A2058
Procedure: as §1, §2, §3, §4, §5, §6, §7, §8

[20] = system: SCC-4 cells; assay: CellTiter-Glo cell viability, SCC-4
Procedure: as §1, §2, §3, §4, §5, §6, §7, §8

[21] = system: EBC-1 cells; assay: CellTiter-Glo cell viability, EBC-1
Procedure: as §1, §2, §3, §4, §5, §6, §7, §8

[22] = system: U251 cells; assay: CellTiter-Glo cell viability, U251
Procedure: as §1, §2, §3, §4, §5, §6, §7, §8

[23] = top conc. 10 μM Compound 121, 100 μM cisplatin

With `N.N.[Cl][Pt][Cl]` [Cisplatin, reference compound] the GI50 ([1]; read-out: Absolute GI50) was 1.83 µM, the IC50 ([1]; read-out: Absolute IC50) was 2.24 µM and the “% inhibition at top conc.” value [1, 23] was 99.88%. For the same molecule, the GI50 ([2]; read-out: Absolute GI50) was 1.98 µM, the IC50 ([2]; read-out: Absolute IC50) was 2.22 µM and the “% inhibition at top conc.” value [2, 23] was 99.59%. The GI50 ([3]; read-out: Absolute GI50) was 4.27 µM, the IC50 ([3]; read-out: Absolute IC50) was 4.76 µM and the “% inhibition at top conc.” value [3, 23] was 98.22%. The GI50 ([4]; read-out: Absolute GI50) was 7.05 µM, the IC50 ([4]; read-out: Absolute IC50) was 9.51 µM and the “% inhibition at top conc.” value [4, 23] was 96.82%. For the same molecule, the GI50 ([5]; read-out: Absolute GI50) was 2.38 µM, the IC50 ([5]; read-out: Absolute IC50) was 3.62 µM and the “% inhibition at top conc.” value [5, 23] was 99.76%. The GI50 ([6]; read-out: Absolute GI50) was 5.72 µM, the IC50 ([6]; read-out: Absolute IC50) was 7.36 µM and the “% inhibition at top conc.” value [6, 23] was 94.81%. The GI50 ([7]; read-out: Absolute GI50) was 4.14 µM, the IC50 ([7]; read-out: Absolute IC50) was 4.35 µM and the “% inhibition at top conc.” value [7, 23] was 95.29%. The GI50 ([8]; read-out: Absolute GI50) was 15.9 µM, the IC50 ([8]; read-out: Absolute IC50) was 20.3 µM and the “% inhibition at top conc.” value [8, 23] was 93.09%. For the same molecule, the GI50 ([9]; read-out: Absolute GI50) was 5.69 µM, the IC50 ([9]; read-out: Absolute IC50) was 7.12 µM and the “% inhibition at top conc.” value [9, 23] was 98.97%. For the same molecule, the GI50 ([10]; read-out: Absolute GI50) was 2.64 µM, the IC50 ([10]; read-out: Absolute IC50) was 3.26 µM and the “% inhibition at top conc.” value [10, 23] was 91.76%. For the same molecule, the GI50 ([11]; read-out: Absolute GI50) was 0.3 µM, the “% inhibition at top conc.” value [11, 23] was 99.60% and the GI50 ([12]; read-out: Absolute GI50) was 4.21 µM. The IC50 ([12]; read-out: Absolute IC50) was 4.51 µM, the “% inhibition at top conc.” value [12, 23] was 97.94% and the GI50 ([13]; read-out: Absolute GI50) was 5.52 µM. For the same molecule, the IC50 ([13]; read-out: Absolute IC50) was 6.93 µM, the “% inhibition at top conc.” value [13, 23] was 98.75% and the GI50 ([14]; read-out: Absolute GI50) was 1.96 µM. For the same molecule, the IC50 ([14]; read-out: Absolute IC50) was 2.25 µM, the “% inhibition at top conc.” value [14, 23] was 98.16% and the GI50 ([15]; read-out: Absolute GI50) was 1.34 µM. The IC50 ([15]; read-out: Absolute IC50) was 1.46 µM, the “% inhibition at top conc.” value [15, 23] was 99.99% and the GI50 ([16]; read-out: Absolute GI50) was 18.6 µM. For the same molecule, the “% inhibition at top conc.” value [16, 23] was 85.68%, the GI50 ([17]; read-out: Absolute GI50) was 4.68 µM and the IC50 ([17]; read-out: Absolute IC50) was 5.94 µM. The “% inhibition at top conc.” value [17, 23] was 83.88%, the GI50 ([18]; read-out: Absolute GI50) was 3.68 µM and the IC50 ([18]; read-out: Absolute IC50) was 4.38 µM. The “% inhibition at top conc.” value [18, 23] was 99.95%, the GI50 ([19]; read-out: Absolute GI50) was 2.38 µM and the IC50 ([19]; read-out: Absolute IC50) was 3.11 µM. For the same molecule, the “% inhibition at top conc.” value [19, 23] was 99.85%, the GI50 ([20]; read-out: Absolute GI50) was 3.43 µM and the IC50 ([20]; read-out: Absolute IC50) was 4.15 µM. The “% inhibition at top conc.” value [20, 23] was 99.29%, the GI50 ([21]; read-out: Absolute GI50) was 11.8 µM and the IC50 ([21]; read-out: Absolute IC50) was 17.3 µM. For the same molecule, the “% inhibition at top conc.” value [21, 23] was 84.49%, the GI50 ([22]; read-out: Absolute GI50) was 3.07 µM and the IC50 ([22]; read-out: Absolute IC50) was 3.98 µM. The “% inhibition at top conc.” value [22, 23] was 87.70%.

— patent US20210196724A1, “BIARYL COMPOSITIONS AND METHODS FOR MODULATING A KINASE CASCADE” (Athenex, Inc., priority 2016, published 2021)
